One may read the IC50 as the concentration that inhibits the measured activity by half.

Epidermal growth factor receptor, sequence (P00533 whole entry): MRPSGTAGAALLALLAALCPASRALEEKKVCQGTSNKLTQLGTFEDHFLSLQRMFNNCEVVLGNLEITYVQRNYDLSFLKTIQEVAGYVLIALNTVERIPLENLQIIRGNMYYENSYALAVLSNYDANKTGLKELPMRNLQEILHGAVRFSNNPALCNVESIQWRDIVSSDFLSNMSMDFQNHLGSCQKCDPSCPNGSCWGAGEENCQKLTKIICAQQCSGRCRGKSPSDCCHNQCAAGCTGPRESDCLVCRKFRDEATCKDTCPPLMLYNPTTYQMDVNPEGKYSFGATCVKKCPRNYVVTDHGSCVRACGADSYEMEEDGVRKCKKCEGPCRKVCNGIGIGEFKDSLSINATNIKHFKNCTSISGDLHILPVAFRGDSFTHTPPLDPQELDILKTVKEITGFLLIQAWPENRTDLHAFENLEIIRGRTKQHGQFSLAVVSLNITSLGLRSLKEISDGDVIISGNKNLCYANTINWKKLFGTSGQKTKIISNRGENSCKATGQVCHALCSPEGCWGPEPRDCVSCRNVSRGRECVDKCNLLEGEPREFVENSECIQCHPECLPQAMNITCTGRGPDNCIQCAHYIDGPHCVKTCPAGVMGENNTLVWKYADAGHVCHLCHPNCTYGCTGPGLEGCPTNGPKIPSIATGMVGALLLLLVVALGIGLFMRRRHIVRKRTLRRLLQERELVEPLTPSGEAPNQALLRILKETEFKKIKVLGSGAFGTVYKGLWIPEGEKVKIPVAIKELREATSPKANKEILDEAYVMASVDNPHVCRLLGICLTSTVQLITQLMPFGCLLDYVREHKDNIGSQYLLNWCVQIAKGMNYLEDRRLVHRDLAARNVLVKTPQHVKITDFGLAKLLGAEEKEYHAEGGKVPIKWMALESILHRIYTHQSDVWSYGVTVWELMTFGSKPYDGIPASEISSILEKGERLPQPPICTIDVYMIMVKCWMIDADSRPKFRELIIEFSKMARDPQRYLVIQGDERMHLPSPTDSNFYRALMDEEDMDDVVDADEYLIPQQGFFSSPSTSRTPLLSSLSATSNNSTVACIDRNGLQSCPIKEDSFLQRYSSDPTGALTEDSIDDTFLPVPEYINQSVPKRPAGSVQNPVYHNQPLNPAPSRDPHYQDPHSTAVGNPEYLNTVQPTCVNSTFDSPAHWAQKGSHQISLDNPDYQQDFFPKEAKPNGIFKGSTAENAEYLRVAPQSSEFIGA

The first assay addresses T1, Inhibitor of nuclear factor kappa-B kinase subunit epsilon (Homo sapiens, UniProt Q14164).
T1 sequence (Q14164 whole entry): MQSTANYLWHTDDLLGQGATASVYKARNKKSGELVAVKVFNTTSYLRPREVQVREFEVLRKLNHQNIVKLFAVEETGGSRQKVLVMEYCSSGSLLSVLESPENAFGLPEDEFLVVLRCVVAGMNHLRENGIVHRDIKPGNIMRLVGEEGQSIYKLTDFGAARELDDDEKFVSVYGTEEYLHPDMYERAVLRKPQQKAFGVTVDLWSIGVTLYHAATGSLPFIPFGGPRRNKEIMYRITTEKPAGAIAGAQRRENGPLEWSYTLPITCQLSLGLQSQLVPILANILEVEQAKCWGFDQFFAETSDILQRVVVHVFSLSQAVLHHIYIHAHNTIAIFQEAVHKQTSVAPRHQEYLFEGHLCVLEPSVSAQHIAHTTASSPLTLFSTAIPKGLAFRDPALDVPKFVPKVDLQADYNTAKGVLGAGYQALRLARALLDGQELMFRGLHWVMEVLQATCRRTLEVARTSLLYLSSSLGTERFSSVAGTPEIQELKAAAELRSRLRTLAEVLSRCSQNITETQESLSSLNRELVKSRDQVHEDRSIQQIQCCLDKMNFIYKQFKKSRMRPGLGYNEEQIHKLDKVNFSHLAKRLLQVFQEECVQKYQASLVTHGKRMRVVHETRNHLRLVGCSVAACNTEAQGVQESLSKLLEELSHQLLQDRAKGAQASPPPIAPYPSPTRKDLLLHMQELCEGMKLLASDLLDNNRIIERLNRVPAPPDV
In words: Inhibition of full-length recombinant human GST-tagged IKK-epsilon expressed in baculovirus expression system by Z'-LYTE assay.
For the compound `O=C(NCC(F)(F)F)c1cc(-c2cnn3cc(-c4ccc(OCCN5CCCCC5)cc4)cnc23)cs1`, the IC50 is less than 10 nM.
Still for that read-out and setting: with `Cn1cc(-c2cnc3c(-c4csc(C(=O)NCC(F)(F)F)c4)cnn3c2)cn1` the figure was less than 10 nM; with `Cc1sc(C(=O)N[C@@H]2[C@H](N)CCCC2(F)F)cc1-c1cnn2cc(Cl)cnc12`, 48 nM.
For the compound `Cn1cc(-c2cnc3c(-c4csc(C(=O)N[C@@H]5CCCC[C@@H]5N)c4)cnn3c2)cn1` (racemic), the IC50 was determined as 7.1 nM.

The next assay addresses T2, Cytoplasmic tyrosine-protein kinase BMX (Homo sapiens, UniProt P51813).
T2 sequence (P51813 whole entry): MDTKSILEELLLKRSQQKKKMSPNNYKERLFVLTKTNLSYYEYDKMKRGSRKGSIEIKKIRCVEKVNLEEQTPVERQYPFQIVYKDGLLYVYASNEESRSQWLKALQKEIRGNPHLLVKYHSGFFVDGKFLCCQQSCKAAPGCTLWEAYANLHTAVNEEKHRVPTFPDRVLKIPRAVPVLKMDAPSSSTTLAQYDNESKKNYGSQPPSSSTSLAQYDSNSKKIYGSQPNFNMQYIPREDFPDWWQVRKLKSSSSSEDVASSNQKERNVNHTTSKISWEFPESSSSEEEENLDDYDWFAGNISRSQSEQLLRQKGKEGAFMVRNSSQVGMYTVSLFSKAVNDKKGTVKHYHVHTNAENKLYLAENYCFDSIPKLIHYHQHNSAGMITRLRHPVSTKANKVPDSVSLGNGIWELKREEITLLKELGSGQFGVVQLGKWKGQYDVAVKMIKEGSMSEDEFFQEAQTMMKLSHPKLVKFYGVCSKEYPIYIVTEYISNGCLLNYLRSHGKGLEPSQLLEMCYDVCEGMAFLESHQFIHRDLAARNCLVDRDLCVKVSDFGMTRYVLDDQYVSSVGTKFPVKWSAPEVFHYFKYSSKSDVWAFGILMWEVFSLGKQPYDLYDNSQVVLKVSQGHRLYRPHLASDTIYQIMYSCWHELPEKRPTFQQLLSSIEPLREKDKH
In words: Inhibition of full-length recombinant human His-tagged BMX expressed in baculovirus expression system by Z'-LYTE assay.
`O=C(NCC(F)(F)F)c1cc(-c2cnn3cc(-c4ccc(OCCN5CCCCC5)cc4)cnc23)cs1`: the IC50 is 410 nM.
The same measure, in the same setting: with `Cn1cc(-c2cnc3c(-c4csc(C(=O)NCC(F)(F)F)c4)cnn3c2)cn1` the figure was 270 nM; with `Cc1sc(C(=O)N[C@@H]2[C@H](N)CCCC2(F)F)cc1-c1cnn2cc(Cl)cnc12`, 9800 nM; with `Cn1cc(-c2cnc3c(-c4csc(C(=O)N[C@@H]5CCCC[C@@H]5N)c4)cnn3c2)cn1` (racemic), 3.5 nM.

For a further assay, the target named is RAC-gamma serine/threonine-protein kinase (Homo sapiens, UniProt Q9Y243). In words: Inhibition of full-length recombinant human His-tagged AKT3 expressed in baculovirus expression system by Z'-LYTE assay.
RAC-gamma serine/threonine-protein kinase, sequence (Q9Y243 whole entry): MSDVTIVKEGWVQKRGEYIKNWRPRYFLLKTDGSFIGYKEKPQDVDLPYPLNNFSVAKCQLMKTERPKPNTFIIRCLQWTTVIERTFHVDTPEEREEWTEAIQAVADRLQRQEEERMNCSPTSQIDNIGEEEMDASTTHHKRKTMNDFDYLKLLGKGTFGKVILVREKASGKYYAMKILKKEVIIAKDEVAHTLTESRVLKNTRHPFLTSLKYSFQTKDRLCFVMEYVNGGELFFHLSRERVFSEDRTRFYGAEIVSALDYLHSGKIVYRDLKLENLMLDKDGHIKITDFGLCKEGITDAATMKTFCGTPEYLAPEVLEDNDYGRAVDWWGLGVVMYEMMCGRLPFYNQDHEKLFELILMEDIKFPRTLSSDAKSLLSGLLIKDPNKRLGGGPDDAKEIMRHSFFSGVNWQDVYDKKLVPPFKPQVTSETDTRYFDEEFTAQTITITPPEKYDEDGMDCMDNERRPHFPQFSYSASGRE
On to `O=C(NCC(F)(F)F)c1cc(-c2cnn3cc(-c4ccc(OCCN5CCCCC5)cc4)cnc23)cs1`, for which the IC50 is more than 100000 nM.
Same read-out and setting: with `Cn1cc(-c2cnc3c(-c4csc(C(=O)NCC(F)(F)F)c4)cnn3c2)cn1` the figure was more than 100000 nM.
Same read-out and setting: with `Cc1sc(C(=O)N[C@@H]2[C@H](N)CCCC2(F)F)cc1-c1cnn2cc(Cl)cnc12` the figure was 2400 nM; with `Cn1cc(-c2cnc3c(-c4csc(C(=O)N[C@@H]5CCCC[C@@H]5N)c4)cnn3c2)cn1` (racemic), 330 nM.

The target of a further assay is MAP/microtubule affinity-regulating kinase 3 (Homo sapiens, UniProt P27448). In words: Inhibition of full-length recombinant human GST-tagged MARK3 expressed in baculovirus expression system using biotinylated-Cdc25C peptide substrate measured after 2 hrs by HTRF assay.
MAP/microtubule affinity-regulating kinase 3, sequence (P27448 whole entry): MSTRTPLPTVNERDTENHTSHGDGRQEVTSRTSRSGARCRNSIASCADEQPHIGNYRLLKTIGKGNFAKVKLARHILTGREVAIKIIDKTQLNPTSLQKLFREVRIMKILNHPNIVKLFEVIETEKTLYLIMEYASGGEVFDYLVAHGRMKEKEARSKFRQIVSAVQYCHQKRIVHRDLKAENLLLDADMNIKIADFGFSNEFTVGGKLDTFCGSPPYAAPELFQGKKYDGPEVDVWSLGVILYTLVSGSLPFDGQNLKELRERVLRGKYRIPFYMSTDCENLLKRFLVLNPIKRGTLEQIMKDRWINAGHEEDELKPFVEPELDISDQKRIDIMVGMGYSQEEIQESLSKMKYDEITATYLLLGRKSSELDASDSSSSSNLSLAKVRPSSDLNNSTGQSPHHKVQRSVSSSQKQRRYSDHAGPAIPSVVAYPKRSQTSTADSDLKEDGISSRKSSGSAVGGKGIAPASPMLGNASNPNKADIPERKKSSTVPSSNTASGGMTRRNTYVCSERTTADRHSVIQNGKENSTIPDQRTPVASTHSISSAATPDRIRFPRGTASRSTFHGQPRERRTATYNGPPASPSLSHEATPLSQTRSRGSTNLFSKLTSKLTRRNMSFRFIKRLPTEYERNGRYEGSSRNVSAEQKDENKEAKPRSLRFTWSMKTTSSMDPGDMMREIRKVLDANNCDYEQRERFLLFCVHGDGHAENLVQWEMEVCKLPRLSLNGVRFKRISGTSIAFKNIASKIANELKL
Take `O=C(NCC(F)(F)F)c1cc(-c2cnn3cc(-c4ccc(OCCN5CCCCC5)cc4)cnc23)cs1`: the IC50 stood at 1 nM.
Still for that read-out and setting: with `Cn1cc(-c2cnc3c(-c4csc(C(=O)NCC(F)(F)F)c4)cnn3c2)cn1` the figure was 6 nM.
As to `Cc1sc(C(=O)N[C@@H]2[C@H](N)CCCC2(F)F)cc1-c1cnn2cc(Cl)cnc12`, the IC50 was 5 nM.
Same read-out and setting: with `Cn1cc(-c2cnc3c(-c4csc(C(=O)N[C@@H]5CCCC[C@@H]5N)c4)cnn3c2)cn1` (racemic) the figure was not above 0.5 nM.

A further assay addresses Epidermal growth factor receptor (Homo sapiens, UniProt P00533). In words: Inhibition of recombinant human His-tagged EGFR expressed in mammalian expression system by Z'-LYTE assay.
Consider `O=C(NCC(F)(F)F)c1cc(-c2cnn3cc(-c4ccc(OCCN5CCCCC5)cc4)cnc23)cs1`, for which the IC50 stood at 1100 nM.
For `Cn1cc(-c2cnc3c(-c4csc(C(=O)NCC(F)(F)F)c4)cnn3c2)cn1`, the IC50 worked out at 28000 nM.
For the compound `Cc1sc(C(=O)N[C@@H]2[C@H](N)CCCC2(F)F)cc1-c1cnn2cc(Cl)cnc12`, the IC50 was more than 100000 nM.
The same measure, in the same setting: with `Cn1cc(-c2cnc3c(-c4csc(C(=O)N[C@@H]5CCCC[C@@H]5N)c4)cnn3c2)cn1` (racemic) the figure was 340 nM.

The target in a further assay is SRSF protein kinase 1 (Homo sapiens, UniProt Q96SB4). In words: Inhibition of full-length recombinant human His-tagged SRPK1 expressed in baculovirus expression system by Z'-LYTE assay.
SRSF protein kinase 1, sequence (Q96SB4 whole entry): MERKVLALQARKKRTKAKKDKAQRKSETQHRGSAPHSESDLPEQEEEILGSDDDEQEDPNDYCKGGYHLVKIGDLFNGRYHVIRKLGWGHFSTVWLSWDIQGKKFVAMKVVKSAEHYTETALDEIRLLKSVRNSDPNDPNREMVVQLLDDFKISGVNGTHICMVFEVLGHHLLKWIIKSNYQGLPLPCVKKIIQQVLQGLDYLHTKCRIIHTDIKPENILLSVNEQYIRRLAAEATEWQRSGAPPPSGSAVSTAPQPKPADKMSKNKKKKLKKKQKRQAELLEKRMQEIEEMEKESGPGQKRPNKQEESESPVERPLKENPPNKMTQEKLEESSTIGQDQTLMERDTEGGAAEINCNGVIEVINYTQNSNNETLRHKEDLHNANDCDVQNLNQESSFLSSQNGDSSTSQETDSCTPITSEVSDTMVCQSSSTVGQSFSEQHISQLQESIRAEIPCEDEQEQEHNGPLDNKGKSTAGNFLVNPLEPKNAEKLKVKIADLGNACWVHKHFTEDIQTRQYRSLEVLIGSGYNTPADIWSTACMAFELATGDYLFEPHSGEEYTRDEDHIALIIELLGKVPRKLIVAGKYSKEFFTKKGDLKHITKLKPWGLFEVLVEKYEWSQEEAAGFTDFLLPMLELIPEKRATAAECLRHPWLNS
With `O=C(NCC(F)(F)F)c1cc(-c2cnn3cc(-c4ccc(OCCN5CCCCC5)cc4)cnc23)cs1`, the IC50 was more than 100000 nM.
On the same count and under the same terms, with `Cn1cc(-c2cnc3c(-c4csc(C(=O)NCC(F)(F)F)c4)cnn3c2)cn1` the figure was 28000 nM; with `Cc1sc(C(=O)N[C@@H]2[C@H](N)CCCC2(F)F)cc1-c1cnn2cc(Cl)cnc12`, 12000 nM; with `Cn1cc(-c2cnc3c(-c4csc(C(=O)N[C@@H]5CCCC[C@@H]5N)c4)cnn3c2)cn1` (racemic), 140 nM.

The target in a further assay is T3, Dual specificity mitogen-activated protein kinase kinase 6 (Homo sapiens, UniProt P52564).
T3 sequence (P52564 whole entry): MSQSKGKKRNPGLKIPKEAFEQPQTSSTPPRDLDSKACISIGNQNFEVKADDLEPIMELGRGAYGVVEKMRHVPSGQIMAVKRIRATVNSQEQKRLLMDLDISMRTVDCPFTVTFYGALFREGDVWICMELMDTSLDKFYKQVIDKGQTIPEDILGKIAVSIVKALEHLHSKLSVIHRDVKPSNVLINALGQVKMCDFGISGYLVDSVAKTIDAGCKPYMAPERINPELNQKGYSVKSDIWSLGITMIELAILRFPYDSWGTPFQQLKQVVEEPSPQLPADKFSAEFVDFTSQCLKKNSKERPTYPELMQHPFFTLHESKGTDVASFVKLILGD
In words: Inhibition of full-length recombinant human His-tagged MAP2K6 expressed in baculovirus expression system by Z'-LYTE assay.
As for `O=C(NCC(F)(F)F)c1cc(-c2cnn3cc(-c4ccc(OCCN5CCCCC5)cc4)cnc23)cs1`, the IC50 amounted to 19000 nM.
`Cn1cc(-c2cnc3c(-c4csc(C(=O)NCC(F)(F)F)c4)cnn3c2)cn1`: the IC50 turned out to be 35000 nM.
The same measure, in the same setting: with `Cc1sc(C(=O)N[C@@H]2[C@H](N)CCCC2(F)F)cc1-c1cnn2cc(Cl)cnc12` the figure was 3300 nM; with `Cn1cc(-c2cnc3c(-c4csc(C(=O)N[C@@H]5CCCC[C@@H]5N)c4)cnn3c2)cn1` (racemic), 290 nM.

A further assay deals with Tyrosine-protein kinase BTK (Homo sapiens, UniProt Q06187). In words: Inhibition of full-length recombinant human His-tagged BTK expressed in baculovirus expression system by Z'-LYTE assay.
Tyrosine-protein kinase BTK, sequence (Q06187 whole entry): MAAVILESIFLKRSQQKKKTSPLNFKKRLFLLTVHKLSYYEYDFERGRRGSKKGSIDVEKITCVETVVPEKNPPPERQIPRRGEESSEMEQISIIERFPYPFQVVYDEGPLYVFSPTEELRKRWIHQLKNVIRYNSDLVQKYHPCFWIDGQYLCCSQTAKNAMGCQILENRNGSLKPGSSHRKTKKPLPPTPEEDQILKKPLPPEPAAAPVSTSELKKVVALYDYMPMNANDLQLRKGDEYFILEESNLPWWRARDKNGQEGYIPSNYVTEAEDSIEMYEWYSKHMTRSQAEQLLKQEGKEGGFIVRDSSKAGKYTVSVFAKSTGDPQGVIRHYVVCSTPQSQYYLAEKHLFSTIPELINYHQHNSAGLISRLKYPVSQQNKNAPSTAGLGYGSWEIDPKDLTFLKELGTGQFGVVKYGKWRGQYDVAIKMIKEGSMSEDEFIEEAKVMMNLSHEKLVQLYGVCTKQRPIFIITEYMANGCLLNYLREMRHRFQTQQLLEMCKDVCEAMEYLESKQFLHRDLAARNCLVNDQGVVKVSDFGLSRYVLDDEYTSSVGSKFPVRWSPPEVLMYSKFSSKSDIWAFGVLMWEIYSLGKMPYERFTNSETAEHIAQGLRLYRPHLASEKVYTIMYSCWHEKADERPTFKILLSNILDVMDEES
For the compound `O=C(NCC(F)(F)F)c1cc(-c2cnn3cc(-c4ccc(OCCN5CCCCC5)cc4)cnc23)cs1`, the IC50 was 290 nM.
On the same count and under the same terms, with `Cn1cc(-c2cnc3c(-c4csc(C(=O)NCC(F)(F)F)c4)cnn3c2)cn1` the figure was 360 nM; with `Cc1sc(C(=O)N[C@@H]2[C@H](N)CCCC2(F)F)cc1-c1cnn2cc(Cl)cnc12`, 13000 nM.
On the same count and under the same terms, with `Cn1cc(-c2cnc3c(-c4csc(C(=O)N[C@@H]5CCCC[C@@H]5N)c4)cnn3c2)cn1` (racemic) the figure was less than 1 nM.

For a further assay, the target named is Mitogen-activated protein kinase 1 (Homo sapiens, UniProt P28482). In words: Inhibition of full-length recombinant human GST-tagged MAPK1 expressed in Escherichia coli by Z'-LYTE assay.
Mitogen-activated protein kinase 1, sequence (P28482 whole entry): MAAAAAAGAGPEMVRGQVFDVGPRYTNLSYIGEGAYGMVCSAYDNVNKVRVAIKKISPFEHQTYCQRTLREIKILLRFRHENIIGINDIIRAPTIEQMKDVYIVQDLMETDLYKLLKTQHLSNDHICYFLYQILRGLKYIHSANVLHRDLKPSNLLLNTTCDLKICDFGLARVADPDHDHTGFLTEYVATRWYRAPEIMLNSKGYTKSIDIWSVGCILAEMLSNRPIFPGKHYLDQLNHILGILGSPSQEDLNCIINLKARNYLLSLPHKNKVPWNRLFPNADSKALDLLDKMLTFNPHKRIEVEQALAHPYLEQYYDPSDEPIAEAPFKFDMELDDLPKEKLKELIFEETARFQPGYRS
On to `O=C(NCC(F)(F)F)c1cc(-c2cnn3cc(-c4ccc(OCCN5CCCCC5)cc4)cnc23)cs1`, for which the IC50 came out at 12000 nM.
The same measure, in the same setting: with `Cn1cc(-c2cnc3c(-c4csc(C(=O)NCC(F)(F)F)c4)cnn3c2)cn1` the figure was 18000 nM; with `Cc1sc(C(=O)N[C@@H]2[C@H](N)CCCC2(F)F)cc1-c1cnn2cc(Cl)cnc12`, 1200 nM.
The same measure, in the same setting: with `Cn1cc(-c2cnc3c(-c4csc(C(=O)N[C@@H]5CCCC[C@@H]5N)c4)cnn3c2)cn1` (racemic) the figure was 230 nM.

The next assay concerns the target T4, Serine/threonine-protein kinase Sgk1 (Homo sapiens, UniProt O00141).
T4 sequence (O00141 whole entry): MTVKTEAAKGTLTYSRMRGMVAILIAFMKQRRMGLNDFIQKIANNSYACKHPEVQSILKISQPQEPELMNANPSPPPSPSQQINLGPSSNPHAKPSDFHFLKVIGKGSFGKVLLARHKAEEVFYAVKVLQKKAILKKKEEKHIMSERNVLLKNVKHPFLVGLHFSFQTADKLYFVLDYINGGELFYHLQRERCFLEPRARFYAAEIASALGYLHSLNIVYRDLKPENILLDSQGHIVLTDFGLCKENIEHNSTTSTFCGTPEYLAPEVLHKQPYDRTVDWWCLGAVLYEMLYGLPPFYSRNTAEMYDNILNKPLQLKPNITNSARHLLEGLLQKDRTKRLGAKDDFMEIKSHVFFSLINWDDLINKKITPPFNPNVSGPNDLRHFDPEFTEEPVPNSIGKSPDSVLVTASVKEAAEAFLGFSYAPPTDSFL
In words: Inhibition of recombinant human GST-tagged SGK catalytic domain expressed in baculovirus expression system by Z'-LYTE assay.
Consider `O=C(NCC(F)(F)F)c1cc(-c2cnn3cc(-c4ccc(OCCN5CCCCC5)cc4)cnc23)cs1`, for which the IC50 amounted to 27 nM.
In the case of `Cn1cc(-c2cnc3c(-c4csc(C(=O)NCC(F)(F)F)c4)cnn3c2)cn1`, the IC50 was 63 nM.
Turning to `Cc1sc(C(=O)N[C@@H]2[C@H](N)CCCC2(F)F)cc1-c1cnn2cc(Cl)cnc12`, the IC50 turned out to be 810 nM.
Still for that read-out and setting: with `Cn1cc(-c2cnc3c(-c4csc(C(=O)N[C@@H]5CCCC[C@@H]5N)c4)cnn3c2)cn1` (racemic) the figure was 200 nM.

In the next assay the target is Tyrosine-protein kinase HCK (Homo sapiens, UniProt P08631). In words: Inhibition of full-length human N-terminal GST-tagged HCK expressed in baculovirus expression system by Z'-LYTE assay.
Tyrosine-protein kinase HCK, sequence (P08631 whole entry): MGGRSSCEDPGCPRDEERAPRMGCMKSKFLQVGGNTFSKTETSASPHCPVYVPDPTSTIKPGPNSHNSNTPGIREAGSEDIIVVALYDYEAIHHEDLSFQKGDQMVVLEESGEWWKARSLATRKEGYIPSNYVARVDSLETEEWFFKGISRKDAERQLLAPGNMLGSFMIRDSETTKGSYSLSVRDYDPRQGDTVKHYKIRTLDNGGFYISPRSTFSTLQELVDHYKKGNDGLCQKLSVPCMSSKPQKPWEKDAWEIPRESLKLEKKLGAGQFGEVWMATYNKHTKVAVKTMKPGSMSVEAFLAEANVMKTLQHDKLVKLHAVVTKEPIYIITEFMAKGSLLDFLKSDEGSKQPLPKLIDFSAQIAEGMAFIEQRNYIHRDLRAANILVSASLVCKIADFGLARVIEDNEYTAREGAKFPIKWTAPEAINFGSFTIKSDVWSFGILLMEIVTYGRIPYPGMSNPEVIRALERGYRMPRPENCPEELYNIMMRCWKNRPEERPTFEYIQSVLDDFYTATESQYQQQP
With `O=C(NCC(F)(F)F)c1cc(-c2cnn3cc(-c4ccc(OCCN5CCCCC5)cc4)cnc23)cs1`, half-maximal inhibition (IC50) was put at 30 nM.
Still for that read-out and setting: with `Cn1cc(-c2cnc3c(-c4csc(C(=O)NCC(F)(F)F)c4)cnn3c2)cn1` the figure was 33 nM; with `Cc1sc(C(=O)N[C@@H]2[C@H](N)CCCC2(F)F)cc1-c1cnn2cc(Cl)cnc12`, 6400 nM.
`Cn1cc(-c2cnc3c(-c4csc(C(=O)N[C@@H]5CCCC[C@@H]5N)c4)cnn3c2)cn1` (racemic) had an IC50 of 2.8 nM.
